# Experimental data as given in patent EP4790066A1, “GLP-1R/GIPR/GCGR TRIPLE AGONIST ANALOGUE AND USE THEREOF” (Shenzhen Bay Laboratory, priority 2023, dated 2025).
# Tests used:
# Format in all cases: cell-based
# GLP-1R [1] = biological target: T1, GLP-1R (Homo sapiens, UniProt P43220); assay: CreLuc method (CRE-luciferase reporter), HEK293/pGM-CREB-L-Luc/GLP-1R pool; conditions: 6 h incubation, read-out: EC50 (pM) for each receptor GLP-1R
# T1 construct: expressed in transfected cells
# Outline: (§1)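 Stable HEK293 pools co-expressing each receptor with a CRE-luciferase reporter were plated at 20,000 cells/well in freestyle medium and treated with compound dilution series for 6 h at 37 °C. Luminescence was read with ONE-GLO to derive EC50.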
# GIPR [2] = biological target: T2, GIPR (Homo sapiens, UniProt P48546); assay: CreLuc method (CRE-luciferase reporter), HEK293/pGM-CREB-L-Luc/GIPR pool; conditions: 6 h incubation, read-out: EC50 (pM) for each receptor GIPR
# T2 construct: expressed in transfected cells
# T2 sequence (P48546 22-466): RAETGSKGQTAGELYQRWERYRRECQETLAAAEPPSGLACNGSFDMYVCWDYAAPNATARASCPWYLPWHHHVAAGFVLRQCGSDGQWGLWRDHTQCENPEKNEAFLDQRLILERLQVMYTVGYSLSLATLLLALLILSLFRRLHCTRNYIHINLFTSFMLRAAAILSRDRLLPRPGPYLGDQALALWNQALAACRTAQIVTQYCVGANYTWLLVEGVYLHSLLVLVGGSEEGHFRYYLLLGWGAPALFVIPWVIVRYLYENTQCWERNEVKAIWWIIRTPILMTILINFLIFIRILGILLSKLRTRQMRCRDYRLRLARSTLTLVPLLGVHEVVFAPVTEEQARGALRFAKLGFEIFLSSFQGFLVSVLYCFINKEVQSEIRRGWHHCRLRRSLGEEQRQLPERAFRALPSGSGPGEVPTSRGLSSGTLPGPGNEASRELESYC
# Outline: as §1
# GCGR [3] = biological target: T3, GCGR (Homo sapiens, UniProt P47871); assay: CreLuc method (CRE-luciferase reporter), 293HEK/pGM-CREB-L-Luc/GCGR pool; conditions: 6 h incubation, read-out: EC50 (pM) for each receptor GCGR
# T3 construct: expressed in transfected cells
# T3 sequence (P47871 26-477, species assumed): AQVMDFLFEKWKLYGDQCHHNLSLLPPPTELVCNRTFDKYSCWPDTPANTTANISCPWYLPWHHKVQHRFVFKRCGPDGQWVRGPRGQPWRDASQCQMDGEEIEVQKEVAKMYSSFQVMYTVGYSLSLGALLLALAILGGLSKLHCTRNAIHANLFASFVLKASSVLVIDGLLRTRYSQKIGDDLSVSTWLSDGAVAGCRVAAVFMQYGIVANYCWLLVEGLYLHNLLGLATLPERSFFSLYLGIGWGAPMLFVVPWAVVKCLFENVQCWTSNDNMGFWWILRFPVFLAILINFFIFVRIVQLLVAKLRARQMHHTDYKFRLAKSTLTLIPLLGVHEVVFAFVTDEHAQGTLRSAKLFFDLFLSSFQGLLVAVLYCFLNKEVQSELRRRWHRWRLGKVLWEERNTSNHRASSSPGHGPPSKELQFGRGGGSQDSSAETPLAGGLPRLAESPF
# Outline: as §1
# GLP-1R [4] = biological target: T1, GLP-1R; assay: cAMP method (HTRF cAMP detection kit), HEK293/pGM-CREB-L-Luc/GLP-1 pool; conditions: read-out: EC50 (pM) for each receptor GLP-1R
# Protocol: 2. Insulinotropic analogues can bind to target receptors on the cell membrane, activate the receptors, and induce release. The activity of the test substance can be determined using the HTRF method with a cAMP detection kit. Therefore, the cAMP method can be used to detect the target peptide derivatives (or polypeptide derivatives, i.e., TG1-TG86) prepared in Example 1 and Example 2. […] The test cell line was selected, treated with cAMP-specific trypsin for digestion. 3 mL of serum-free DMEM culture medium was added, and the cells were pipetted, resuspended, and counted. 5 µL of IBMX (prepared with serum-free DMEM medium, 0.5 mM) and test cells (5 µL/7500 cells/well) were added in a 384-well plate sequentially. The plate was incubated at 37°C under 5% CO2 for 30 min, followed by the addition of cAMP-d2 (5 µL, 1x) and Anti-cAMP-Cryptate (5 µL, 1x). The mixture was kept at room temperature for 1 h, after which the HTRF value was measured using a chemiluminescent microplate reader, and the determination result was recorded. […] Table 4: EC50 values for target peptide derivatives
# GIPR [5] = biological target: T2, GIPR; assay: cAMP method (HTRF cAMP detection kit), HEK293/pGM-CREB-L-Luc/GIP pool; conditions: read-out: EC50 (pM) for each receptor GIPR
# GCGR [6] = biological target: T3, GCGR; assay: cAMP method (HTRF cAMP detection kit), HEK293/pGM-CREB-L-Luc/GCG pool; conditions: read-out: EC50 (pM) for each receptor GCGR
# T1 sequence (P43220 24-463, species assumed): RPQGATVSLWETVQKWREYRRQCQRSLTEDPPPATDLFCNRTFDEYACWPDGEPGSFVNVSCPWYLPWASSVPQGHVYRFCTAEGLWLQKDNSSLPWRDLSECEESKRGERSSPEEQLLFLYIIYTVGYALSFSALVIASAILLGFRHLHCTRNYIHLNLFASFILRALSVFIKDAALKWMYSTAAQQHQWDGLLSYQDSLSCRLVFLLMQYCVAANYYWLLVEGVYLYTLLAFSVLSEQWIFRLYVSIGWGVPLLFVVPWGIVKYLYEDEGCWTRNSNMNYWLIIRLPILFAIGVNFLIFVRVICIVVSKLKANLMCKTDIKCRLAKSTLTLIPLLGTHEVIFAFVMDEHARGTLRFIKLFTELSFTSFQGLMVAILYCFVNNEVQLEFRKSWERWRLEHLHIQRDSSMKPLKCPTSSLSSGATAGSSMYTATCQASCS
Compound,EC50 (GLP-1R [1]),EC50 (GIPR [2]),EC50 (GCGR [3]),EC50 (GLP-1R [4]),EC50 (GIPR [5]),EC50 (GCGR [6])
CC[C@H](C)[C@@H]1NC(=O)[C@H](Cc2ccccc2)NC(=O)[C@@H](NC(=O)C(C)(C)NC(=O)[C@H](CCC(N)=O)NC(=O)[C@H](C)NC(=O)[C@H](CCC(N)=O)NC(=O)[C@H](CCCCN)NC(=O)[C@H](CC(=O)O)NC(=O)[C@H](CC(C)C)NC(=O)[C@](C)(CC(C)C)NC(=O)[C@@H](NC(=O)[C@H](CO)NC(=O)[C@H](Cc2ccc(O)cc2)NC(=O)[C@H](CC(=O)O)NC(=O)[C@H](CO)NC(=O)[C@@H](NC(=O)[C@H](Cc2ccccc2)NC(=O)[C@@H](NC(=O)CNC(=O)[C@H](CCC(N)=O)NC(=O)C(C)(C)NC(=O)[C@@H](N)Cc2ccc(O)cc2)[C@@H](C)O)[C@@H](C)O)[C@@H](C)CC)CSCC(=O)NCCN(C(=O)CCC(=O)NCCOCCOCC(=O)NCCOCCOCC(=O)NCCCC[C@H](NC(=O)CCCCCCCCCCCCCCCCCCC(=O)O)C(=O)O)CCNC(=O)CSC[C@@H](C(=O)NCC(=O)NCC(=O)N2CCC[C@H]2C(=O)N[C@@H](CO)C(=O)N[C@@H](CO)C(=O)NCC(=O)N[C@@H](C)C(=O)N2CCC[C@H]2C(=O)N2CCC[C@H]2C(=O)N2CCC[C@H]2C(=O)N[C@@H](CO)C(N)=O)NC(=O)[C@H](CC(C)C)NC(=O)[C@H](CC(C)C)NC(=O)[C@H](Cc2ccc(O)cc2)NC(=O)[C@H](CCC(=O)O)NC1=O [TG30],47.8 pM,45.3 pM,347 pM,2.5 pM,3.2 pM,28.7 pM
CC[C@H](C)[C@@H]1NC(=O)[C@H](Cc2ccccc2)NC(=O)[C@@H](NC(=O)C(C)(C)NC(=O)[C@H](CCC(N)=O)NC(=O)[C@H](C)NC(=O)[C@H](CCCCNC(C)=O)NC(=O)[C@H](CCCCN)NC(=O)[C@H](CC(=O)O)NC(=O)[C@H](CC(C)C)NC(=O)[C@](C)(CC(C)C)NC(=O)[C@@H](NC(=O)[C@H](CO)NC(=O)[C@H](Cc2ccc(O)cc2)NC(=O)[C@H](CC(=O)O)NC(=O)[C@H](CO)NC(=O)[C@@H](NC(=O)[C@H](Cc2ccccc2)NC(=O)[C@@H](NC(=O)CNC(=O)[C@H](CCC(N)=O)NC(=O)C2(NC(=O)[C@@H](N)Cc3ccc(O)cc3)CCC2)[C@@H](C)O)[C@@H](C)O)[C@@H](C)CC)CSCC(=O)NCCN(C(=O)CCC(=O)NCCOCCOCC(=O)NCCOCCOCC(=O)NCCCC[C@H](NC(=O)CCCCCCCCCCCCCCCCCCC(=O)O)C(=O)O)CCNC(=O)CSC[C@@H](C(=O)NCC(=O)NCC(=O)N2CCC[C@H]2C(=O)N[C@@H](CO)C(=O)N[C@@H](CO)C(=O)NCC(=O)N[C@@H](C)C(=O)N2CCC[C@H]2C(=O)N2CCC[C@H]2C(=O)N2CCC[C@H]2C(=O)N[C@@H](CO)C(N)=O)NC(=O)[C@H](CC(C)C)NC(=O)[C@H](CC(C)C)NC(=O)[C@H](Cc2ccc(O)cc2)NC(=O)[C@H](CCC(=O)O)NC1=O [TG43],57.1 pM,13.6 pM,78.7 pM,1.3 pM,6.4 pM,3.8 pM
